Data as given in patent US8729134B2, “Aryl di-substituted propenone compounds” (Heartlink Limited, priority 2008, dated 2014).
Values after ≈ are worked out from the molar mass of the structure shown. “Also recorded” adds a separate entry of the source. Read-outs that look alike come from different tables or passages of the source.

Tests used:
[1] = system: JAM (ovarian carcinoma) cells; assay: MTT cell viability assay, JAM cells; type: cell-based; details: for IC50: Ovarian carcinoma cell, 96 hours incubation, read-out: IC 50, inhibition of JAM cells
Description: (§1) Cell viability was tested using the MTT assay (Amersham). The MTT [3-(4,5-dimethylthiazol-2-yl)-2,5-diphenyltetrazolium bromide] assay, was first described by Mosmann in 1983, (J Immunol Methods. 1983 Dec. 16; 65(1-2):55-63). The assay is based on the ability of a mitochondrial dehydrogenase enzyme from viable cells to cleave the tetrazolium rings of the pale yellow MTT and form a dark blue formazan crystals which is largely impermeable to cell membranes, thus resulting in accumulation within healthy cells. Solubilisation of the cells by the addition of a detergent results in the liberation of the crystals which are then solubilized. The number of surviving cells is directly proportional to the level of the formazan product created. The colour can then be quantified using a simple colorimetric assay. The results can be read on a multi-well scanning spectrophotometer (ELISA reader).
(§2) Cells were plated at predetermined densities in 96 well plates. These were then incubated for 24 hours at 37° C. with 5%; CO2. Growth medium was then removed and replaced with 100 μl of growth medium containing various dilutions of test reagents or appropriate controls.
(§3) Plates were then incubated for a either 48 or 96 hours.
(§4) MTT reagent was then added to each well. The plates were then incubated in a 37° C./5% CO2 incubator. Detergent reagent was then added to each well. The plates were incubated overnight at 37° C./5% CO2. The absorbance was read at 570 nm.
Compound IV was compared with genistein to test the cell viability of JAM (ovarian carcinoma) and HELA (human cervical carcinoma) cell lines.

[2] = system: HELA (human cervical carcinoma) cells; assay: MTT cell viability assay, HELA cells; type: cell-based; details: 96 hour incubation, read-out: IC 50, inhibition of HELA cells
Description: as §1, §2, §3
(§5) MTT reagent was then added to each well. The plates were then incubated in a 37° C./5% CO2 incubator. Detergent reagent was then added to each well. […] The absorbance was read at 570 nm. […]

[3] = system: MCF-7 cells (human, mammary, adenocarcinoma cell line); assay: MTT cell viability assay, MCF-7 cells; type: cell-based; details: MCF7, 48 hours incubation, read-out: IC50, inhibition of MCF7 cells
Description: (§6) Compounds II-IV were compared with genistein to test the cell viability of MCF-7 cells (human, mammary, adenocarcinoma cell line) and MDA-MB-435 cells (human mammary ductal carcinoma).
as §1, §2, §3, §4

[4] = system: MDA-MB-435 cells (human mammary ductal carcinoma); assay: MTT cell viability assay, MDA-MB-435 cells; type: cell-based; details: 48 hours incubation, read-out: IC50, inhibition of MDA-MB-435 cell line
Description: as §6, §1, §2, §3, §4

[5] = system: LNCaP cells (human prostate carcinoma); assay: MTT cell viability assay, LNCaP cells; type: cell-based; details: 48 hours incubation
Description: as §1, §2, §3, §4
(§7) Compounds II-IV were compared with genistein to test the cell viability of LNCaP, PC3 and DU-145 cell lines (human prostate carcinoma).

[6] = system: PC3 cells (human prostate carcinoma); assay: MTT cell viability assay, PC3 cells; type: cell-based; details: PC-3, read-out: IC 50, inhibition in PC3 cells
Description: as §1, §2, §3, §4, §7

[7] = system: DU-145 cells (human prostate carcinoma); assay: MTT cell viability assay, DU-145 cells; type: cell-based; details: 48 hours incubation
Description: as §1, §2, §3, §4, §7

[8] = system: SK-OV-3 (ovarian adenocarcinoma) cells; assay: MTT cell viability assay, SK-OV-3 cells; type: cell-based; details: Homo sapiens, read-out: IC 50, inhibition in SK-OV-3 cells
Description: as §1, §2, §3, §4
(§8) Also, Compounds II-IV were compared with genistein to test the cell viability of SK-OV-3 (ovarian adenocarcinoma), OVCAR-3 (ovarian adenocarcinoma), and C-33A (cervical carcinoma) cell lines.

[9] = system: OVCAR-3 (ovarian adenocarcinoma) cells; assay: MTT cell viability assay, OVCAR-3 cells; type: cell-based; details: Homo sapiens, read-out: IC 50, inhibition in OVCAR-3 cells
Description: as §1, §2, §3, §4, §8

[10] = system: C-33A (cervical carcinoma) cells; assay: MTT cell viability assay, C-33A cells; type: cell-based; details: Homo sapiens, 48 hours incubation, read-out: IC 50, inhibition of C-33A cells
Description: as §1, §2, §3, §4, §8

[11] = system: SK-MEL-28 (human malignant melanoma) cell line; assay: MTT cell viability assay, SK-MEL-28 cells; type: cell-based; details: read-out: IC 50, inhibition in SK-MEL-28 cells
Description: as §1, §2, §3, §4
Compounds II, III and IV were compared with genistein to test the cell viability of SK-MEL-28 (human malignant melanoma) cell line.

[12] = Tolerability in the xenograft mouse model; type: in vivo; details: doses of 50, 25 and 10 mg/kg intraperitoneally for 14 days
Description: (§9) Female athymic mice (54) were implanted subcutaneously in the right hind flank with human DU145 prostate tumour cells (5×10^6). Tumour formation and growth were monitored until the tumours reached an average 25 mm^2 area (5 mm×5 mm). Mice were randomised into groups based upon tumour area (mean tumour area in individual groups ranged from 22 mm^2-33 mm^2). Compositions of Compounds II and III were prepared in a solution of 5% DMSO, 10% Tween 80 in PBS and administered intraperitoneally in a volume of 100 μl at doses of 50, 25, and 10 mg/kg to individual eight week old female Balb/c mice for 14 days. Vehicle control was 5% DMSO, 10% Tween 80 in PBS.

[13] = system: human DU145 prostate tumour cells (xenograft); assay: Anti-tumour efficacy in DU145 xenograft mouse model; type: in vivo, mice
Description: The cell lines were cultured and prepared for inoculation according to standard protocols.
as §9

[14] = system: B16-F1 cells (murine melanoma); assay: MTT cell viability assay, B16-F1 cells; type: cell-based; details: Mus musculus, 96 hours incubation, read-out: IC 50, inhibition of B16-F1 cells
Description: as §1, §2, §3, §5

[15] = system: AB1 cells (murine myeloma); assay: MTT cell viability assay, AB1 cells; type: cell-based; details: Mus musculus, 96 hours incubation, read-out: IC 50, inhibition of AB1 cells
Description: as §1, §2, §3, §5

[16] = read-out: IC 50, inhibition of LNCaP cells
[17] = read-out: IC 50, inhibition of DU-145 cells

Q: With `COc1ccc(C(=O)Cc2ccc(OC)c(OC)c2)c(OC)c1` [Compound V, 1-(2,4-dimethoxyphenyl)-2-(3,4-dimethoxyphenyl)ethanone] as the molecule, how does the IC50 [1] read?
A: 0.9 µg/mL (≈ 2.84 µM)

Q: What about the IC50 [2] of the same molecule?
A: 3 µg/mL (≈ 9.48 µM)

Q: What does the source list for `C=C(C(=O)c1cc(OC)c(OC)cc1OC)c1ccc(OC)c(OC)c1` [Compound III, 1-(2,4,5-trimethoxyphenyl)-2-(3,4-dimethoxyphenyl)prop-2-en-1-one]?
A: IC50 [3]: 3 µM; IC50 [4]: 3.8 µM; IC50 [5, 16]: 5 µM; IC50 [6]: 8.6 µM; IC50 [7, 17]: 15 µM; IC50 [8]: 33.1 µM; IC50 [9]: 11.7 µM; IC50 [10]: 3.1 µM; IC50 [11]: 5.5 µM; tolerability / toxicity in the animals [12]: neither compound resulted in unacceptable toxicity

Q: Which IC50 [3] does the source give for `C=C(C(=O)c1ccc(OC)c(OC)c1OC)c1ccc(OC)cc1` [Compound II, 1-(2,3,4-trimethoxyphenyl)-2-(4-methoxyphenyl)prop-2-en-1-one] here?
A: 2.2 µM

Q: And the IC50 [4]?
A: 0.6 µM

Q: And the IC50 [5, 16]?
A: 2.3 µM

Q: And the IC50 [6]?
A: 2.7 µM

Q: And the IC50 [7, 17]?
A: 4.8 µM

Q: What about the IC50 [8] of the same molecule?
A: 21.5 µM

Q: What about the IC50 [9] of the same molecule?
A: 3.3 µM

Q: What about the IC50 [10] of the same molecule?
A: 1.8 µM

Q: What about the IC50 [11] of the same molecule?
A: 3.5 µM

Q: And the “reduction mean tumour growth relative to the control group” value ([13]; 10 mg/kg intraperitoneally for 14 days, at the completion of treatment)?
A: 42%

Q: And the “statistical significance of tumour growth inhibition” value ([13]; 25 mg/kg and 10 mg/kg treatment groups, t-test P<0.05)?
A: statistically significant

Q: What about the “tumour growth relative to control animals treated with vehicle alone (in words)” value ([13]; 50, 25, 10 mg/kg intraperitoneally, 14 days) of the same molecule?
A: caused delay in the growth of DU-145 tumours; also recorded: clearly inhibited tumour growth

Q: What about the “anti-tumour effect, comparison between Compounds II and III” value ([13]; DU145 xenograft, 50, 25, 10 mg/kg) of the same molecule?
A: has the most anti-tumour effect; also recorded: superior anti-tumour effect in comparison with Compound III

Q: What about the “tumour size following the cessation of treatment” value ([13]; after the 14 day treatment, entire study period) of the same molecule?
A: tumours remained smaller

Q: And the “tolerability / toxicity in the animals” value [12]?
A: better tolerated by the animals than Compound III; also recorded: neither compound resulted in unacceptable toxicity

Q: For `O=c1c(-c2ccc(O)cc2)coc2cc(O)cc(O)c12` [genistein, reference compound], which IC50 [3] is on record?
A: 79.4 µM

Q: What about the IC50 [4] of the same molecule?
A: > 100 µM

Q: What about the IC50 ([5]; genistein, read-out: IC, inhibition of LNCaP cells) of the same molecule?
A: 59.5 µM

Q: What about the IC50 [7, 17] of the same molecule?
A: 78.9 µM

Q: What about the IC50 [1] of the same molecule?
A: 9.7 µg/mL (≈ 35.9 µM)

Q: What about the IC50 [10] of the same molecule?
A: 41.9 µM

Q: And the IC50 [14]?
A: 4.5 µg/mL (≈ 16.7 µM)

Q: And the IC50 [15]?
A: 1.1 µg/mL (≈ 4.07 µM)

Q: With `C=C(C(=O)c1ccc(OC)cc1OC)c1ccc(OC)c(OC)c1` [Compound IV, 1-(2,4-dimethoxyphenyl)-2-(3,4-dimethoxyphenyl)prop-2-en-1-one] as the molecule, how does the IC50 [3] read?
A: 6.8 µM

Q: What about the IC50 [4] of the same molecule?
A: 6.8 µM

Q: What about the IC50 [5, 16] of the same molecule?
A: 6.1 µM

Q: And the IC50 [6]?
A: 8.7 µM

Q: And the IC50 ([7]; read-out: IC 50, inhibition of DU-145 cells (unit inferred))?
A: 10.7 µM

Q: And the “cytotoxic potency compared with genistein” value ([1]; JAM and HELA cell lines)?
A: more potent as a cytotoxic agent than genistein

Q: What about the IC50 [8] of the same molecule?
A: 27.4 µM

Q: What about the IC50 [9] of the same molecule?
A: 16.9 µM

Q: What about the IC50 [10] of the same molecule?
A: 2.4 µM

Q: And the IC50 [14]?
A: 1.6 µg/mL (≈ 4.87 µM)

Q: What about the IC50 [11] of the same molecule?
A: 3.5 µM

Q: And the IC50 [15]?
A: 1.1 µg/mL (≈ 3.35 µM)
